According to patent US10344060B2 (priority 2013, dated 2019):

How the values were obtained:
Test in all cases: cell-based
Assay type in all cases: cell-based
[1] = biological target: hNav1.7 (Homo sapiens, UniProt Q15858); conditions: Table 12; PatchXpress, tonic block; read-out: PX hNav1.7 Tonic IC50
[2] = biological target: hNav1.4 (Homo sapiens, UniProt P35499); conditions: Table 12; for IC50: PatchXpress, tonic block, read-out: PX hNav1.4 Tonic IC50; for Nav1.4/Nav1.7: ratio of PX tonic IC50 values
[3] = biological target: hNav1.6 (Homo sapiens, UniProt Q9UQD0); conditions: Table 15; for Nav1.6/Nav1.7: ratio of PX tonic IC50 values; for IC50: read-out: PX hNav1.6 Tonic IC50
hNav1.6, sequence (Q9UQD0 whole entry): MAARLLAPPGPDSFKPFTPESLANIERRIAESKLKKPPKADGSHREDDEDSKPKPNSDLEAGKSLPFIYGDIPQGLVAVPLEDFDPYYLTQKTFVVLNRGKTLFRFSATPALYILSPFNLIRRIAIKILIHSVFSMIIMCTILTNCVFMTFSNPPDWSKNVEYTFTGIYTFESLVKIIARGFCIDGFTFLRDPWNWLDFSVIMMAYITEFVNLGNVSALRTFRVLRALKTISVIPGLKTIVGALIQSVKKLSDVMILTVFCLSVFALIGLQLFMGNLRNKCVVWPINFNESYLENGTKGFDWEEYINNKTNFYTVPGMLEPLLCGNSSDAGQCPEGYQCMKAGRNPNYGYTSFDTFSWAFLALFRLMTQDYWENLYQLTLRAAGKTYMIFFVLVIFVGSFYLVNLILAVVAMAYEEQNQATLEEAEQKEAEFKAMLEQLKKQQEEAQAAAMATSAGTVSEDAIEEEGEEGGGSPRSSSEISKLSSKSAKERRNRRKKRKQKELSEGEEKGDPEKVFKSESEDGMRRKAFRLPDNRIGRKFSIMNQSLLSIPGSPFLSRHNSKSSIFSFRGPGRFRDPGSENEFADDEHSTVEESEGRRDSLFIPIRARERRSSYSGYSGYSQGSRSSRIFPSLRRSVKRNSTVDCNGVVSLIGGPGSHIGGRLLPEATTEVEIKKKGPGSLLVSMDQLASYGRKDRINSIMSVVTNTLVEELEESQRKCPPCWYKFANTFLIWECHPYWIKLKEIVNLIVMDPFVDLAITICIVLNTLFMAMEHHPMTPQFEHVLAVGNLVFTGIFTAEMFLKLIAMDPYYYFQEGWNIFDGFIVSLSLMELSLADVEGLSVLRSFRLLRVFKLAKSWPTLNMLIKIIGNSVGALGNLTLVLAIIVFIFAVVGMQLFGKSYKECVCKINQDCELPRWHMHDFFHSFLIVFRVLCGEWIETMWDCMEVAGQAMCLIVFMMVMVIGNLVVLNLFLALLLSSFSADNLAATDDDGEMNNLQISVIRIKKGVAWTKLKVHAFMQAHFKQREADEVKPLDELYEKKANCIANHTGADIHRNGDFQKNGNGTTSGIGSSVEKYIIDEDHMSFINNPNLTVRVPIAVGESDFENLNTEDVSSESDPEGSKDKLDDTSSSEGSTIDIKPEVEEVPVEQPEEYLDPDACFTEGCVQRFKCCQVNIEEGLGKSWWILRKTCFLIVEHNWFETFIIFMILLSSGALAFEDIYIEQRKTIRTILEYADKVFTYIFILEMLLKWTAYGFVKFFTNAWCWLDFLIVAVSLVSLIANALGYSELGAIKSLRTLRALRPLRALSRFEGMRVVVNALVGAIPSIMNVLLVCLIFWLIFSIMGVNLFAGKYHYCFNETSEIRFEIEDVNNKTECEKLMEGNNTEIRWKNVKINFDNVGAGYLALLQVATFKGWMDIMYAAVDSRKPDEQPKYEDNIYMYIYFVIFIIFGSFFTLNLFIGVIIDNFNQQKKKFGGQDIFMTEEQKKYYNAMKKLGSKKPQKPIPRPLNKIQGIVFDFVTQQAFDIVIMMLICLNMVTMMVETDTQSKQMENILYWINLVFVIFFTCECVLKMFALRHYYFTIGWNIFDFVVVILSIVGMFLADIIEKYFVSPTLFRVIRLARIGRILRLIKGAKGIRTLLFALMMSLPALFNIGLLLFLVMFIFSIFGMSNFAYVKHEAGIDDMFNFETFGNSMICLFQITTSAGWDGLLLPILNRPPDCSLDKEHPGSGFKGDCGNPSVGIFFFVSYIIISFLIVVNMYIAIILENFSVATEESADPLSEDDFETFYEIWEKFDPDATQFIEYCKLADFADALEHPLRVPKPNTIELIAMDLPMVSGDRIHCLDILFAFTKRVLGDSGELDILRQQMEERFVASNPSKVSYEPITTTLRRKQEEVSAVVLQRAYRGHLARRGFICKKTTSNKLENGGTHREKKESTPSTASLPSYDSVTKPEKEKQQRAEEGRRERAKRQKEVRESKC

hNav1.4, sequence (P35499 whole entry): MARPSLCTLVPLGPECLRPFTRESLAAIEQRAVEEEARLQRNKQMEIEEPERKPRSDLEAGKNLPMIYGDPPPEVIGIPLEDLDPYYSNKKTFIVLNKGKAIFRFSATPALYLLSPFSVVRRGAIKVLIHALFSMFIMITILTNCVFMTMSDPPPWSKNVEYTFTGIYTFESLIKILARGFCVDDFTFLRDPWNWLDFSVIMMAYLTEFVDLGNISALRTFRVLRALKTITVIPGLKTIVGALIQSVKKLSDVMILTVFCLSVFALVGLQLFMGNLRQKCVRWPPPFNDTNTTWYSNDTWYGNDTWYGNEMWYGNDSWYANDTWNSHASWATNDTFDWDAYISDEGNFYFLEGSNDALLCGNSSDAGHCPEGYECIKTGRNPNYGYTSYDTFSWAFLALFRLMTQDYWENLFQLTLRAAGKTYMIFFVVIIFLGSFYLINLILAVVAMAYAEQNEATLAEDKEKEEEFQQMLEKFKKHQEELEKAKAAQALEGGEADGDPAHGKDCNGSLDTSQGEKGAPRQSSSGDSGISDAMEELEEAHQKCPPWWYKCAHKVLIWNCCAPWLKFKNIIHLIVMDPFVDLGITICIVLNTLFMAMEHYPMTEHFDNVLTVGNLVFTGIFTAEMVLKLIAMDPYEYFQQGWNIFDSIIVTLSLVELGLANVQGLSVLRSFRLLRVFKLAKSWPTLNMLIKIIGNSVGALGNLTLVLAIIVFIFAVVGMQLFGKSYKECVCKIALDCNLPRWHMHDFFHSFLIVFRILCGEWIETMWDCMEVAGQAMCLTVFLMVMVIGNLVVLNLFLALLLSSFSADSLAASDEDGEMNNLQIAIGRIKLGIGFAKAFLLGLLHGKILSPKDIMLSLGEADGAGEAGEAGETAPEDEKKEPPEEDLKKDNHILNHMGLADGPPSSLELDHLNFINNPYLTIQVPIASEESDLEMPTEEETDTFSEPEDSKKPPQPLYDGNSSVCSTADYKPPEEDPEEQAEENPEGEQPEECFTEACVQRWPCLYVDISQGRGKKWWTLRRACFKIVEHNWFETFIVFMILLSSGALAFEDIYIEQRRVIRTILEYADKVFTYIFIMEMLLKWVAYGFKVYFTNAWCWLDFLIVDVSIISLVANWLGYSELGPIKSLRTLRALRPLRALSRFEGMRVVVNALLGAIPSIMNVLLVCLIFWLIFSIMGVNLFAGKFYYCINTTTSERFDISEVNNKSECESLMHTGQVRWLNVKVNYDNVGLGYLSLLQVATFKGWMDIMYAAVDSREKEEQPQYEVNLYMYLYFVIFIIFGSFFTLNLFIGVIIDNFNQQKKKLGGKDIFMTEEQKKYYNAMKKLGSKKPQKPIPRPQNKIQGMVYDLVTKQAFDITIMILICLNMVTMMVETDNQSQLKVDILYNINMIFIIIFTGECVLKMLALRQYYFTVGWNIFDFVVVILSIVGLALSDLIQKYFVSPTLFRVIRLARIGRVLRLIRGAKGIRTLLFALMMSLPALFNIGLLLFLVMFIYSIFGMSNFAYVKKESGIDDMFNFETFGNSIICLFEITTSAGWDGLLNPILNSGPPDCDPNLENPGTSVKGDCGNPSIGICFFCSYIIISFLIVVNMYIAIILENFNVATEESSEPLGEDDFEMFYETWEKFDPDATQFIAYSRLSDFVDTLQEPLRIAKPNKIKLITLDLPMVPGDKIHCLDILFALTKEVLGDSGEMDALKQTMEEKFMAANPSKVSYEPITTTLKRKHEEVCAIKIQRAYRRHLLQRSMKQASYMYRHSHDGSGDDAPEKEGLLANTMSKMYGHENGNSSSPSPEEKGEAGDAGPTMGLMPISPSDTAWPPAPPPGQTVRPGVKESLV

Structure (SMILES)	IC50 [1] [nM]	IC50 [2] [nM]	Nav1.4/Nav1.7 [2]	Nav1.6/Nav1.7 [3]	IC50 [3] [nM]
C#CC[C@H](NC(=O)[C@@H](N)CCC(=O)O)C(=O)N[C@@H](CCC(=O)O)C(=O)N[C@H]1CSSC[C@@H]2NC(=O)[C@@H]3CSSC[C@@H](C(=O)N[C@@H](CCCNC(=N)N)C(=O)N[C@@H](CCCCN)C(=O)N[C@@H](CCC(=O)O)C(=O)N[C@H](C(N)=O)[C@@H](C)CC)NC(=O)[C@H](Cc4c[nH]c5ccccc45)NC(=O)[C@H](CC(C)C)NC(=O)[C@H](CCCCN)NC(=O)[C@H](CSSC[C@H](NC(=O)[C@H]([C@@H](C)O)NC(=O)[C@H](Cc4c[nH]c5ccccc45)NC(=O)[C@H](CCCC)NC(=O)[C@H](Cc4c[nH]c5ccccc45)NC(=O)[C@H](CCCCN)NC(=O)[C@H](CCC(N)=O)NC1=O)C(=O)N[C@@H](CC(=O)O)C(=O)N[C@@H](CCC(=O)O)C(=O)N[C@@H](CCCCN)C(=O)N[C@@H](CCCNC(=N)N)C(=O)N[C@@H](C)C(=O)N3)NC(=O)[C@H](CCCNC(=N)N)NC(=O)[C@H](CC(C)C)NC(=O)CNC(=O)[C@H](CCC(=O)O)NC2=O [compound 741]	5.59	1680	302	1014	5660
C#CC[C@H](NC(=O)[C@@H](N)CCC(=O)O)C(=O)N[C@H]1CSSC[C@@H]2NC(=O)[C@@H]3CSSC[C@@H](C(=O)N[C@@H](CCCNC(=N)N)C(=O)N[C@@H](CCCCN)C(=O)N[C@@H](CCC(=O)O)C(=O)N[C@H](C(N)=O)[C@@H](C)CC)NC(=O)[C@H](Cc4c[nH]c5ccccc45)NC(=O)[C@H](CC(C)C)NC(=O)[C@H](CCCCN)NC(=O)[C@H](CSSC[C@H](NC(=O)[C@H]([C@@H](C)O)NC(=O)[C@H](Cc4c[nH]c5ccccc45)NC(=O)[C@H](CCCC)NC(=O)[C@H](Cc4c[nH]c5ccccc45)NC(=O)[C@H](CCCCN)NC(=O)[C@H](CCC(N)=O)NC1=O)C(=O)N[C@@H](CC(=O)O)C(=O)N[C@@H](CCC(=O)O)C(=O)N[C@@H](CCCCN)C(=O)N[C@@H](CCCNC(=N)N)C(=O)N[C@@H](CCC(=O)O)C(=O)N3)NC(=O)[C@H](CCCNC(=N)N)NC(=O)[C@H](CC(C)C)NC(=O)CNC(=O)[C@H](CCC(=O)O)NC2=O [compound 750]	2.91	1190	411	>3442	> 10000
C#CC[C@H](NC(=O)[C@@H](N)CCC(=O)O)C(=O)N[C@@H](Cc1ccc(O)cc1)C(=O)N[C@H]1CSSC[C@@H]2NC(=O)[C@@H]3CSSC[C@@H](C(=O)N[C@@H](CCCNC(=N)N)C(=O)N[C@@H](CCCCN)C(=O)N[C@@H](CCC(=O)O)C(=O)N[C@H](C(N)=O)[C@@H](C)CC)NC(=O)[C@H](Cc4c[nH]c5ccccc45)NC(=O)[C@H](CC(C)C)NC(=O)[C@H](CCCCN)NC(=O)[C@H](CSSC[C@H](NC(=O)[C@H]([C@@H](C)O)NC(=O)[C@H](Cc4c[nH]c5ccccc45)NC(=O)[C@H](CCCC)NC(=O)[C@H](Cc4c[nH]c5ccccc45)NC(=O)[C@H](CCCCN)NC(=O)[C@H](CCC(N)=O)NC1=O)C(=O)N[C@@H](CC(=O)O)C(=O)N[C@@H](CCC(=O)O)C(=O)N[C@@H](CCCCN)C(=O)N[C@@H](CCCNC(=N)N)C(=O)N[C@@H](C)C(=O)N3)NC(=O)[C@H](CCCNC(=N)N)NC(=O)[C@H](CC(C)C)NC(=O)CNC(=O)[C@H](CCC(=O)O)NC2=O [compound 734]	2.33	1050	452	1233	2870
C#CC[C@H](N)C(=O)N[C@@H](Cc1ccc(O)cc1)C(=O)N[C@H]1CSSC[C@@H]2NC(=O)[C@@H]3CSSC[C@@H](C(=O)N[C@@H](CCCNC(=N)N)C(=O)N[C@@H](CCCCN)C(=O)N[C@@H](CCC(=O)O)C(=O)N[C@H](C(N)=O)[C@@H](C)CC)NC(=O)[C@H](Cc4c[nH]c5ccccc45)NC(=O)[C@H](CC(C)C)NC(=O)[C@H](CCCCN)NC(=O)[C@H](CSSC[C@H](NC(=O)[C@H]([C@@H](C)O)NC(=O)[C@H](Cc4c[nH]c5ccccc45)NC(=O)[C@H](CCCC)NC(=O)[C@H](Cc4c[nH]c5ccccc45)NC(=O)[C@H](CCCCN)NC(=O)[C@H](CCC(N)=O)NC1=O)C(=O)N[C@@H](CC(=O)O)C(=O)N[C@@H](CO)C(=O)N[C@@H](CCCCN)C(=O)N[C@@H](CCCNC(=N)N)C(=O)N[C@@H](C)C(=O)N3)NC(=O)[C@H](CCCNC(=N)N)NC(=O)[C@H](CC(C)C)NC(=O)CNC(=O)[C@H](CCCCN)NC2=O [compound 718]	1.42	33.9	24	104	148
C#CC[C@H](N)C(=O)N[C@@H](CCC(=O)O)C(=O)N[C@H]1CSSC[C@@H]2NC(=O)[C@@H]3CSSC[C@@H](C(=O)N[C@@H](CCCNC(=N)N)C(=O)N[C@@H](CCCCN)C(=O)N[C@@H](CCC(=O)O)C(=O)N[C@H](C(N)=O)[C@@H](C)CC)NC(=O)[C@H](Cc4c[nH]c5ccccc45)NC(=O)[C@H](CC(C)C)NC(=O)[C@H](CCCCN)NC(=O)[C@H](CSSC[C@H](NC(=O)[C@H]([C@@H](C)O)NC(=O)[C@H](Cc4c[nH]c5ccccc45)NC(=O)[C@H](CCCC)NC(=O)[C@H](Cc4c[nH]c5ccccc45)NC(=O)[C@H](CCCCN)NC(=O)[C@H](CCC(N)=O)NC1=O)C(=O)N[C@@H](CC(=O)O)C(=O)N[C@@H](CCC(=O)O)C(=O)N[C@@H](CCCCN)C(=O)N[C@@H](CCCNC(=N)N)C(=O)N[C@@H](C)C(=O)N3)NC(=O)[C@H](CCCNC(=N)N)NC(=O)[C@H](CC(C)C)NC(=O)CNC(=O)[C@H](CCC(=O)O)NC2=O [compound 739]	5.55	1280	231	395	2190
C#CC[C@@H]1NC(=O)[C@@H]2CSSC[C@H](NC(=O)[C@H](Cc3ccc(O)cc3)NC(=O)[C@@H](N)CC#N)C(=O)N[C@@H](CCC(N)=O)C(=O)N[C@@H](CCCCN)C(=O)N[C@@H](Cc3c[nH]c4ccccc34)C(=O)N[C@@H](CCCC)C(=O)N[C@@H](Cc3c[nH]c4ccccc34)C(=O)N[C@@H]([C@@H](C)O)C(=O)N[C@H]3CSSC[C@H](NC(=O)[C@H](CCCNC(=N)N)NC(=O)[C@H](CC(C)C)NC(=O)CNC1=O)C(=O)N[C@@H](CCCCN)C(=O)N[C@@H](CC(C)C)C(=O)N[C@@H](Cc1c[nH]c4ccccc14)C(=O)N[C@H](C(=O)N[C@@H](CCCNC(=N)N)C(=O)N[C@@H](CCCCN)C(=O)N[C@@H](CCC(=O)O)C(=O)N[C@H](C(N)=O)[C@@H](C)CC)CSSC[C@H](NC(=O)[C@H](C)NC(=O)[C@H](CCCNC(=N)N)NC(=O)[C@H](CCC(=O)O)NC(=O)[C@H](CO)NC(=O)[C@H](CC(=O)O)NC3=O)C(=O)N2 [compound 732]	0.87	253	291	1972	1720
C#CC[C@H](N)C(=O)N[C@@H](CCC(=O)O)C(=O)N[C@H]1CSSC[C@@H]2NC(=O)[C@@H]3CSSC[C@@H](C(=O)N[C@@H](CCCNC(=N)N)C(=O)N[C@@H](CCCCN)C(=O)N[C@@H](CCC(=O)O)C(=O)N[C@H](C(N)=O)[C@@H](C)CC)NC(=O)[C@H](Cc4c[nH]c5ccccc45)NC(=O)[C@H](CC(C)C)NC(=O)[C@H](CCCCN)NC(=O)[C@H](CSSC[C@H](NC(=O)[C@H]([C@@H](C)O)NC(=O)[C@H](Cc4c[nH]c5ccccc45)NC(=O)[C@H](CCCC)NC(=O)[C@H](Cc4c[nH]c5ccccc45)NC(=O)[C@H](CCCCN)NC(=O)[C@H](CCC(N)=O)NC1=O)C(=O)N[C@@H](CC(=O)O)C(=O)N[C@@H](CO)C(=O)N[C@@H](CCC(=O)O)C(=O)N[C@@H](CCCNC(=N)N)C(=O)N[C@@H](C)C(=O)N3)NC(=O)[C@H](CCCNC(=N)N)NC(=O)[C@H](CC(C)C)NC(=O)CNC(=O)[C@H](CCC(=O)O)NC2=O [compound 742]	4.14	1720	416	333	1380
C#CC[C@H](N)C(=O)N[C@@H](Cc1ccc(O)cc1)C(=O)N[C@H]1CSSC[C@@H]2NC(=O)[C@@H]3CSSC[C@@H](C(=O)N[C@@H](CCCNC(=N)N)C(=O)N[C@@H](CCCCN)C(=O)N[C@@H](CC(=O)O)C(=O)N[C@H](C(N)=O)[C@@H](C)CC)NC(=O)[C@H](Cc4c[nH]c5ccccc45)NC(=O)[C@H](CC(C)C)NC(=O)[C@H](CCCCN)NC(=O)[C@H](CSSC[C@H](NC(=O)[C@H]([C@@H](C)O)NC(=O)[C@H](Cc4c[nH]c5ccccc45)NC(=O)[C@H](CCCC)NC(=O)[C@H](Cc4c[nH]c5ccccc45)NC(=O)[C@H](CCCCN)NC(=O)[C@H](CCC(N)=O)NC1=O)C(=O)N[C@@H](CC(=O)O)C(=O)N[C@@H](CO)C(=O)N[C@@H](CCCCN)C(=O)N[C@@H](CCCNC(=N)N)C(=O)N[C@@H](C)C(=O)N3)NC(=O)[C@H](CCCNC(=N)N)NC(=O)[C@H](CC(C)C)NC(=O)CNC(=O)[C@H](CCC(=O)O)NC2=O [compound 723]	5.98	78.4	13	270	1620
C#CC[C@H](N)C(=O)N[C@@H](Cc1ccc(O)cc1)C(=O)N[C@H]1CSSC[C@@H]2NC(=O)[C@@H]3CSSC[C@@H](C(=O)N[C@@H](CCCNC(=N)N)C(=O)N[C@@H](CCCCN)C(=O)N[C@@H](CCC(=O)O)C(=O)N[C@H](C(N)=O)[C@@H](C)CC)NC(=O)[C@H](Cc4c[nH]c5ccccc45)NC(=O)[C@H](CC(C)C)NC(=O)[C@H](CCC(=O)O)NC(=O)[C@H](CSSC[C@H](NC(=O)[C@H]([C@@H](C)O)NC(=O)[C@H](Cc4c[nH]c5ccccc45)NC(=O)[C@H](CCCC)NC(=O)[C@H](Cc4c[nH]c5ccccc45)NC(=O)[C@H](CCCCN)NC(=O)[C@H](CCC(N)=O)NC1=O)C(=O)N[C@@H](CC(=O)O)C(=O)N[C@@H](CO)C(=O)N[C@@H](CCCCN)C(=O)N[C@@H](CCCNC(=N)N)C(=O)N[C@@H](C)C(=O)N3)NC(=O)[C@H](CCCNC(=N)N)NC(=O)[C@H](CC(C)C)NC(=O)CNC(=O)[C@H](CCC(=O)O)NC2=O [compound 722]			>442	>442	
